Measured values from ChEMBL document CHEMBL2021793, “Synthesis, biological evaluation and structure-activity relationships of glycyrrhetinic acid derivatives as novel anti-hepatitis B virus agents” (Bioorg Med Chem Lett, 2012).

Assays:
[1] = Cytotoxicity against human HepG2(2.2.15) cells; assay type: cell-based
[2] = tested on: Hepatitis B virus; experiment: Antiviral activity against Hepatitis B virus infected in human HepG2(2.2.15) cells assessed as reduction in hepatitis B surface antigen release; assay type: functional, organism-based
[3] = Selectivity index, ratio of CC50 for human HepG2(2.2.15) cells to IC50 for HBV by hepatitis B surface antigen release detection assay; assay type: functional
[4] = tested on: Hepatitis B virus; experiment: Antiviral activity against Hepatitis B virus infected in human HepG2(2.2.15) cells assessed as reduction in hepatitis B e-antigen release; assay type: functional, organism-based
[5] = tested on: Hepatitis B virus; experiment: Antiviral activity against Hepatitis B virus infected in human HepG2(2.2.15) cells assessed as reduction in viral DNA replication; assay type: functional, organism-based
[6] = Selectivity index, ratio of CC50 for human HepG2(2.2.15) cells to IC50 for HBV by viral DNA replication detection assay; assay type: functional
[7] = Selectivity index, ratio of CC50 for human HepG2(2.2.15) cells to IC50 for HBV by hepatitis B e-antigen release detection assay; assay type: functional

| SMILES | IC50 [2] | IC50 [4] | IC50 [5] | CC50 [1] | Ratio CC50/IC50 [3] | Ratio CC50/IC50 [6] | Ratio CC50/IC50 [7] |
| --- | --- | --- | --- | --- | --- | --- | --- |
| Cc1nc(COC(=O)[C@@]2(C)CC[C@]3(C)CC[C@]4(C)C(=CC(=O)[C@@H]5[C@@]6(C)CC[C@H](O)C(C)(C)[C@@H]6CC[C@]54C)[C@@H]3C2)cs1 | 36.3 µM | > 1480 µM | 9.08 µM | 37.2 µM | 1 | 4.1 | – |
| CC1(C)[C@@H](O)CC[C@]2(C)[C@H]3CC=C4[C@@H]5C[C@@](C)(C(=O)OCC(N)=O)CC[C@]5(C)CC[C@@]4(C)[C@]3(C)CC[C@@H]12 | 347 µM | > 1110 µM | 64.9 µM | 472 µM | 1.4 | 7.3 | – |
| COc1cc(/C=C/C(=O)O[C@H]2CC[C@]3(C)[C@H]4CC=C5[C@@H]6C[C@@](C)(C(=O)OCC(N)=O)CC[C@]6(C)CC[C@@]5(C)[C@]4(C)CC[C@H]3C2(C)C)cc(OC)c1OC | 230 µM | 252 µM | > 120 µM | > 481 µM | >2.1 | – | >1.9 |
| CC1(C)[C@@H](O)CC[C@]2(C)[C@H]3C[C@H]4O[C@]45[C@@H]4C[C@@](C)(C(=O)O)CC[C@]4(C)CC[C@@]5(C)[C@]3(C)CC[C@@H]12 | 43.3 µM | > 1810 µM | 18.4 µM | 35.7 µM | – | 1.9 | – |
| CCCC(=O)O[C@H]1CC[C@]2(C)[C@H]3C(=O)C=C4[C@@H]5C[C@@](C)(C(=O)O)CC[C@]5(C)CC[C@@]4(C)[C@]3(C)CC[C@H]2C1(C)C | 370 µM | 37 µM | 48.2 µM | 119 µM | – | 2.5 | 3.2 |
| COc1cc(/C=C/C(=O)O[C@H]2CC[C@]3(C)[C@H]4C(=O)C=C5[C@@H]6C[C@@](C)(C(=O)O)CC[C@]6(C)CC[C@@]5(C)[C@]4(C)CC[C@H]3C2(C)C)cc(OC)c1OC | > 1160 µM | 232 µM | 120 µM | > 1160 µM | – | >9.7 | > 5 |
| CC1(C)[C@@H](O)CC[C@]2(C)[C@H]3C(=O)C=C4[C@@H]5C[C@@](C)(C(=O)OCCOc6ccccc6)CC[C@]5(C)CC[C@@]4(C)[C@]3(C)CC[C@@H]12 | 57.4 µM | > 1180 µM | 14.2 µM | 101 µM | 1.8 | 7.1 | – |
| CC1(C)[C@@H](O)CC[C@]2(C)[C@H]3C(=O)C=C4[C@@H]5C[C@@](C)(C(=O)OCCCCCCCCO)CC[C@]5(C)CC[C@@]4(C)[C@]3(C)CC[C@@H]12 | 145 µM | > 1390 µM | 13.2 µM | 157 µM | 1.1 | 11.9 | – |
| CCOC(=O)CCCOC(=O)[C@@]1(C)CC[C@]2(C)CC[C@]3(C)C(=CC(=O)[C@@H]4[C@@]5(C)CC[C@H](O)C(C)(C)[C@@H]5CC[C@]43C)[C@@H]2C1 | 38.2 µM | 56.8 µM | 30.9 µM | 53.3 µM | 1.4 | 1.7 | – |
| CC1(C)[C@@H](O)CC[C@]2(C)[C@H]3CC=C4[C@@H]5C[C@@](C)(C(=O)O)CC[C@]5(C)CC[C@@]4(C)[C@]3(C)CC[C@@H]12 | 48.7 µM | > 1370 µM | 47 µM | 162 µM | 3.3 | 3.4 | – |
| CC1(C)C(=O)CC[C@]2(C)[C@H]3C(=O)C=C4[C@@H]5C[C@@](C)(C(=O)O)CC[C@]5(C)CC[C@@]4(C)[C@]3(C)CC[C@@H]12 | 433 µM | > 467 µM | 189 µM | 467 µM | 1.1 | 2.5 | – |
| CC(=O)O[C@H]1CC[C@]2(C)[C@H]3C(=O)C=C4[C@@H]5C[C@@](C)(C(=O)O)CC[C@]5(C)CC[C@@]4(C)[C@]3(C)CC[C@H]2C1(C)C [ACETOXOLONE] | 1000 µM | > 518 µM | 121 µM | 518 µM | – | 4.3 | – |
| CC1(C)[C@@H](O)CC[C@]2(C)[C@H]3C(=O)C=C4[C@@H]5C[C@@](C)(C(=O)O)CC[C@]5(C)CC[C@@]4(C)[C@]3(C)CC[C@@H]12 [ENOXOLONE] | 20.9 µM | 130 µM | 39.3 µM | 55.1 µM | 2.6 | 1.4 | – |
| CCC(=O)O[C@H]1CC[C@]2(C)[C@H]3C(=O)C=C4[C@@H]5C[C@@](C)(C(=O)O)CC[C@]5(C)CC[C@@]4(C)[C@]3(C)CC[C@H]2C1(C)C [GLYCYRRHETINIC ACID PROPIONATE] | 1360 µM | 49.2 µM | 44.4 µM | 99.6 µM | – | 2.2 | 2 |
| C[C@H](Cn1cnc2c(N)ncnc21)OCP(=O)(O)O [TENOFOVIR ANHYDROUS] | – | – | 0.89 µM | > 1760 µM | >1.2 | >1973.4 | >1.4 |

Further lines, with some results ahead:

| IC50 [2] | IC50 [4] | IC50 [5] | SMILES | CC50 [1] | Ratio CC50/IC50 [3] | Ratio CC50/IC50 [6] | Ratio CC50/IC50 [7] |
| --- | --- | --- | --- | --- | --- | --- | --- |
| 588 µM | > 1310 µM | 19.5 µM | CC1(C)[C@@H](O)CC[C@]2(C)[C@H]3C(=O)C=C4[C@@H]5C[C@@](C)(C(=O)OCc6cccc(F)c6)CC[C@]5(C)CC[C@@]4(C)[C@]3(C)CC[C@@H]12 | > 1310 µM | >2.2 | >67.2 | – |
| > 986 µM | > 986 µM | 5.71 µM | CC1(C)[C@@H](O)CC[C@]2(C)[C@H]3C(=O)C=C4[C@@H]5C[C@@](C)(C(=O)OCc6ccc(I)cc6)CC[C@]5(C)CC[C@@]4(C)[C@]3(C)CC[C@@H]12 | > 986 µM | – | >172.6 | – |
| > 805 µM | > 805 µM | 18.1 µM | CC1(C)[C@@H](O)CC[C@]2(C)[C@H]3C(=O)C=C4[C@@H]5C[C@@](C)(C(=O)OCc6ccc(Br)cc6F)CC[C@]5(C)CC[C@@]4(C)[C@]3(C)CC[C@@H]12 | > 1430 µM | – | >79 | – |
| > 1370 µM | > 1370 µM | 5.36 µM | CC1(C)[C@@H](O)CC[C@]2(C)[C@H]3C(=O)C=C4[C@@H]5C[C@@](C)(C(=O)OCc6ccc(C(F)(F)F)cc6)CC[C@]5(C)CC[C@@]4(C)[C@]3(C)CC[C@@H]12 | > 1370 µM | – | >255.9 | – |
| 54.4 µM | > 1210 µM | 21.2 µM | CC1(C)[C@@H](O)CC[C@]2(C)[C@H]3C(=O)C=C4[C@@H]5C[C@@](C)(C(=O)OCc6ccc(S(C)(=O)=O)cc6)CC[C@]5(C)CC[C@@]4(C)[C@]3(C)CC[C@@H]12 | 1030 µM | 18.8 | 48.3 | – |
| 606 µM | > 1330 µM | 8.9 µM | CC1(C)[C@@H](O)CC[C@]2(C)[C@H]3C(=O)C=C4[C@@H]5C[C@@](C)(C(=O)OCc6ccc([N+](=O)[O-])cc6)CC[C@]5(C)CC[C@@]4(C)[C@]3(C)CC[C@@H]12 | > 1330 µM | >2.2 | >149.2 | – |
| > 1130 µM | > 1130 µM | 160 µM | CC1(C)[C@@H](O)CC[C@]2(C)[C@H]3C(=O)C=C4[C@@H]5C[C@@](C)(C(=O)OCc6ccc(OC(F)(F)F)cc6)CC[C@]5(C)CC[C@@]4(C)[C@]3(C)CC[C@@H]12 | > 1130 µM | – | >7.1 | – |
| > 1540 µM | > 1540 µM | 195 µM | CC1(C)[C@@H](O)CC[C@]2(C)[C@H]3C(=O)C=C4[C@@H]5C[C@@](C)(C(=O)OCc6ccccc6C#N)CC[C@]5(C)CC[C@@]4(C)[C@]3(C)CC[C@@H]12 | > 1540 µM | – | >7.9 | – |
| > 1700 µM | > 1700 µM | 15.3 µM | CC1(C)[C@@H](O)CC[C@]2(C)[C@H]3C(=O)C=C4[C@@H]5C[C@@](C)(C(=O)OCc6cccc7cccnc67)CC[C@]5(C)CC[C@@]4(C)[C@]3(C)CC[C@@H]12 | > 1700 µM | – | >111 | – |
| 1070 µM | > 1360 µM | 171 µM | CC1(C)[C@@H](O)CC[C@]2(C)[C@H]3C(=O)C=C4[C@@H]5C[C@@](C)(C(=O)OCc6cccnc6)CC[C@]5(C)CC[C@@]4(C)[C@]3(C)CC[C@@H]12 | 321 µM | – | 1.9 | – |
| 927 µM | > 2060 µM | 23.7 µM | CC1(C)[C@@H](O)CC[C@]2(C)[C@H]3C(=O)C=C4[C@@H]5C[C@@](C)(C(=O)OCc6ccc(-n7cccn7)cc6)CC[C@]5(C)CC[C@@]4(C)[C@]3(C)CC[C@@H]12 | 1990 µM | 2.1 | 83.6 | – |
| 40 µM | > 1120 µM | 28.8 µM | CC1(C)[C@@H](O)CC[C@]2(C)[C@H]3C(=O)C=C4[C@@H]5C[C@@](C)(C(=O)OCC(N)=O)CC[C@]5(C)CC[C@@]4(C)[C@]3(C)CC[C@@H]12 | 55.3 µM | 1.4 | 1.9 | – |
